# Active and inactive are the calls of the source. The calls are words filed in the database; no cut-off is given here.
# Columns and labels:
# [1] = Stability in mouse plasma assessed as half life measured upto 24 hrs by HPLC analysis; assay type: ADME, cell-free
# [2] = Stability of compound in PBS buffer at pH 7.4 assessed as half life; assay type: physicochemical
# [3] = Solubility of compound in water by HPLC analysis; assay type: physicochemical
# [4] = Stability in human plasma assessed as half life measured upto 24 hrs by HPLC analysis; assay type: ADME, cell-free
# Mus musculus [5] = assay: Anti-fibrotic activity in bleomycin-induced pulmonary fibrosis C57BL/6 mouse model assessed as attenuation of collagen accumulation in lung at 0.33 mg/kg, ip pretreated with bleomycin for 5 days and followed by compound administration for 15 days by Masson staining based analysis; assay type: functional, organism-based; settings: time 15.0 day
# Mus musculus [6] = assay: Anti-fibrotic activity in bleomycin-induced pulmonary fibrosis C57BL/6 mouse model assessed as decrease in TGF-beta1 level in BALF at 0.66 mg/kg, ip pretreated with bleomycin from day 1 and followed by compound administration for 15 days by ELISA analysis; assay type: functional, organism-based; settings: time 15.0 day
# [7] = MRT(0 to infinity) in Kunming mouse at 1 mg/kg, iv measured upto 48 hrs by LC/MS analysis; assay type: ADME, organism-based; settings: in vivo
# [8] = (§1) Prodrug conversion of the compound in phosphate buffer saline at pH 7.4 assessed as (6aS,7aS,8R,8aR,9aS,9bS,10aS,10bS)-8-hydroxy-8a-isopropyl-10b-methyl-2,5,5b,6,6a,8,8a,9a,9b,10b-decahydrotris(oxireno)[2',3':4b,5;2'',3'':6,7;2''',3''':8a,9]phenanthro[1,2-c]furan-3(1H)-one formation by measuring half life; assay type: ADME
# Mus musculus [9] = assay: Anti-fibrotic activity in bleomycin-induced pulmonary fibrosis C57BL/6 mouse model assessed as downregulation of ADAM 10 level in BALF at 0.66 mg/kg, ip pretreated with bleomycin for 5 days and followed by compound administration for 15 days by ELISA analysis; assay type: functional, organism-based; settings: time 15.0 day
# Mus musculus [10] = assay: Anti-fibrotic activity in bleomycin-induced pulmonary fibrosis C57BL/6 mouse model assessed as decrease in myofibroblast by measuring alpha-SMA level at 0.33 to 0.66 mg/kg, ip pretreated with bleomycin for 5 days and followed by compound administration for 15 days; assay type: functional, organism-based; settings: dose 0.33-0.66 mg/kg, time 15.0 day
# [11] = Clearance in Kunming mouse at 1 mg/kg, iv measured upto 48 hrs by LC/MS analysis; assay type: ADME, organism-based; settings: in vivo
# [12] = Volume of distribution in Kunming mouse at 1 mg/kg, iv measured upto 48 hrs by LC/MS analysis; assay type: ADME, organism-based; settings: in vivo
# [13] = as §1, with “8” for “7.4”; assay type: ADME
# Mus musculus [14] = assay: Anti-fibrotic activity in bleomycin-induced pulmonary fibrosis C57BL/6 mouse model assessed as increase in body weight at 0.33 mg/kg, ip pretreated with bleomycin for 5 days and followed by compound administration for 14 days; assay type: functional, organism-based; settings: time 14.0 day
# Mus musculus [15] = assay: Anti-fibrotic activity in bleomycin-induced pulmonary fibrosis C57BL/6 mouse model assessed as infiltrated interstitial matrix in lung at 0.33 mg/kg, ip pretreated with bleomycin for 5 days and followed by compound administration for 15 days by H and E staining based analysis; assay type: functional, organism-based; settings: time 15.0 day
# [16] = as §1, with “6.5” for “7.4”; assay type: ADME
# [17] = Toxicity in C57BL/6 mouse assessed as change in AST level at 0.33 mg/kg, ip measured after 15 days; assay type: organism-based; settings: in vivo, 360 h, time 15 day
# [18] = Toxicity in C57BL/6 mouse assessed as change in BUN level at 0.33 mg/kg, ip measured after 15 days; assay type: organism-based; settings: in vivo, 360 h, time 15 day
# Mus musculus [19] = assay: Anti-fibrotic activity in bleomycin-induced pulmonary fibrosis C57BL/6 mouse model assessed as infiltrated interstitial matrix in lung at 60 mg/kg, po pretreated with bleomycin for 5 days and followed by compound administration for 15 days by H and E staining based analysis; assay type: functional, organism-based; settings: time 15.0 day
# Mus musculus [20] = assay: Anti-fibrotic activity in bleomycin-induced pulmonary fibrosis C57BL/6 mouse model assessed as downregulation of sEphrin-B2 level in BALF at 0.33 to 0.66 mg/kg, ip pretreated with bleomycin for 5 days and followed by compound administration for 15 days by ELISA analysis; assay type: functional, organism-based; settings: dose 0.33-0.66 mg/kg, time 15.0 day
# Mus musculus [21] = assay: Anti-fibrotic activity in bleomycin-induced pulmonary fibrosis C57BL/6 mouse model assessed as decrease in TGF-beta1 level in BALF at 0.66 mg/kg, ip pretreated with bleomycin for 5 days and followed by compound administration for 15 days by ELISA analysis; assay type: functional, organism-based; settings: time 15.0 day
# Mus musculus [22] = assay: Anti-fibrotic activity in bleomycin-induced pulmonary fibrosis C57BL/6 mouse model assessed as appearance of red collagen deposits in lung at 0.33 mg/kg, ip pretreated with bleomycin for 5 days and followed by compound administration for 15 days by H and E staining based analysis; assay type: functional, organism-based; settings: time 15.0 day
# [23] = Toxicity in C57BL/6 mouse assessed as pathological changes in liver at 0.33 mg/kg, ip measured after 15 days; assay type: organism-based; settings: in vivo, 360 h, time 15 day
# [24] = AUC (0 to infinity) in Kunming mouse at 1 mg/kg, iv measured upto 48 hrs by LC/MS analysis; assay type: ADME, organism-based; settings: in vivo
# [25] = Toxicity in C57BL/6 mouse assessed as pathological changes in kidney at 0.33 mg/kg, ip measured after 15 days; assay type: organism-based; settings: in vivo, 360 h, time 15 day
# Mus musculus [26] = assay: Anti-fibrotic activity in bleomycin-induced pulmonary fibrosis C57BL/6 mouse model assessed as decrease in lung index at 0.33 mg/kg, ip pretreated with bleomycin for 5 days and followed by compound administration for 15 days; assay type: functional, organism-based; settings: time 15.0 day
# [27] = Toxicity in C57BL/6 mouse assessed as change in creatinine level at 0.33 mg/kg, ip measured after 15 days; assay type: organism-based; settings: in vivo, 360 h, time 15 day
# [28] = Toxicity in C57BL/6 mouse assessed as change in ALT level at 0.33 mg/kg, ip measured after 15 days; assay type: organism-based; settings: in vivo, 360 h, time 15 day
# [29] = Cytotoxicity in human HLF upto 0.625 uM; assay type: toxicity, cell-based
# HLF [30] = assay: Inhibition of sEphrin-B2 expression level in human HLF at 20 nM; assay type: functional, cell-based
# [31] = MRT (0 to t) in Kunming mouse at 1 mg/kg, iv measured upto 48 hrs by LC/MS analysis; assay type: ADME, organism-based; settings: in vivo
# [32] = Half life in Kunming mouse at 1 mg/kg, iv measured upto 48 hrs by LC/MS analysis; assay type: ADME, organism-based; settings: in vivo
# HLF [33] = assay: Inhibition of TGF-betal induced alpha-SMA production in human HLF at 5 to 20 nM incubated for 2 hrs by DAPI staining based laser scanning confocal microscopic analysis; assay type: functional, cell-based; settings: dose 5-20 nM
# Mus musculus [34] = assay: Anti-fibrotic activity in bleomycin-induced pulmonary fibrosis C57BL/6 mouse model assessed as decrease in hydroxyproline level in lung at 0.33 to 0.66 mg/kg, ip pretreated with bleomycin from day 1 and followed by compound administration for 15 days; assay type: functional, organism-based; settings: dose 0.33-0.66 mg/kg, time 15.0 day
# HLF [35] = assay: Upregulation of ADAM 10 expression in TGF-beta1-induced human HLF at 5 to 20 nM; assay type: functional, cell-based; settings: dose 5-20 nM
# Mus musculus [36] = assay: Anti-fibrotic activity in bleomycin-induced pulmonary fibrosis C57BL/6 mouse model at 0.66 mg/kg, ip pretreated with bleomycin for 5 days and followed by compound administration for 15 days; assay type: functional, organism-based; settings: time 15.0 day
# Mus musculus [37] = assay: Anti-fibrotic activity in bleomycin-induced pulmonary fibrosis C57BL/6 mouse model assessed as decrease in hydroxyproline level in lung at 0.33 to 0.66 mg/kg, ip pretreated with bleomycin for 5 days and followed by compound administration for 15 days; assay type: functional, organism-based; settings: dose 0.33-0.66 mg/kg, time 15.0 day
# Mus musculus [38] = assay: Anti-fibrotic activity in bleomycin-induced pulmonary fibrosis C57BL/6 mouse model assessed as decrease in myofibroblast by measuring alpha-SMA level at 60 mg/kg, po pretreated with bleomycin for 5 days and followed by compound administration for 15 days; assay type: functional, organism-based; settings: time 15.0 day
# Mus musculus [39] = assay: Anti-fibrotic activity in bleomycin-induced pulmonary fibrosis C57BL/6 mouse model assessed as decrease in hydroxyproline level in lung at 60 mg/kg, po pretreated with bleomycin for 5 days and followed by compound administration for 15 days; assay type: functional, organism-based; settings: time 15.0 day
# Mus musculus [40] = assay: Anti-fibrotic activity in bleomycin-induced pulmonary fibrosis C57BL/6 mouse model assessed as decrease in lung index at 60 mg/kg, po pretreated with bleomycin for 5 days and followed by compound administration for 15 days; assay type: functional, organism-based; settings: time 15.0 day
# Mus musculus [41] = assay: Anti-fibrotic activity in bleomycin-induced pulmonary fibrosis C57BL/6 mouse model assessed as increase in body weight at 60 mg/kg, po pretreated with bleomycin for 5 days and followed by compound administration for 14 days; assay type: functional, organism-based; settings: time 14.0 day
# Mus musculus [42] = assay: Anti-fibrotic activity in bleomycin-induced pulmonary fibrosis C57BL/6 mouse model assessed as decrease in hydroxyproline level in lung at 60 mg/kg, po pretreated with bleomycin from day 1 and followed by compound administration for 15 days; assay type: functional, organism-based; settings: time 15.0 day
# Mus musculus [43] = assay: Anti-fibrotic activity in bleomycin-induced pulmonary fibrosis C57BL/6 mouse model assessed as appearance of red collagen deposits in lung at 60 mg/kg, po pretreated with bleomycin for 5 days and followed by compound administration for 15 days by H and E staining based analysis; assay type: functional, organism-based; settings: time 15.0 day
compound,measurement,setting,value
CC(C)[C@]12O[C@H]1[C@@H]1O[C@]13[C@]1(O[C@H]1C[C@H]1C4=C(CC[C@@]13C)C(=O)OC4)[C@@H]2OC(=O)NCCN,half-life,[1],27.3 h
same,half-life,[2],25.2 h
same,solubility,[3],12.5 mg/mL
same,half-life,[4],24.5 h
CC(C)[C@]12O[C@H]1[C@@H]1O[C@]13[C@]1(O[C@H]1C[C@H]1C4=C(CC[C@@]13C)C(=O)OC4)[C@@H]2OC(=O)NC1CCCCC1N (some centres not stated),half-life,[1],1.62 h
same,half-life,[2],1.85 h
same,solubility,[3],6.96 mg/mL
same,half-life,[4],1.69 h
CC(C)[C@]12O[C@H]1[C@@H]1O[C@]13[C@]1(O[C@H]1C[C@H]1C4=C(CC[C@@]13C)C(=O)OC4)[C@@H]2OC(=O)NCC1CCCN1 (some centres not stated),half-life,[1],1.79 h
same,half-life,[2],2.46 h
same,solubility,[3],8.99 mg/mL
same,half-life,[4],1.45 h
CNCCN(C)C(=O)O[C@@H]1[C@@]2(C(C)C)O[C@H]2[C@@H]2O[C@]23[C@]12O[C@H]2C[C@H]1C2=C(CC[C@@]13C)C(=O)OC2,Activity,Mus musculus [5],Active
same,Activity,Mus musculus [6],Active
same,MRT inf,[7],14.8 h
same,t1/2,[8],17.7 h
same,Activity,Mus musculus [9],Active
same,half-life,[1],17 h
same,Activity,Mus musculus [10],Active
same,CL,[11],15.2 mL/min/kg
same,Vd,[12],0.119 L/kg
same,t1/2,[13],4.52 h
same,half-life,[2],17.7 h
same,solubility,[3],30.8 mg/mL
same,Activity,Mus musculus [14],Active
same,Activity,Mus musculus [15],Active
same,t1/2,[16],81.7 h
same,Activity,[17],Non-Toxic
same,half-life,[4],16.4 h
same,Activity,[18],Non-Toxic
same,Activity,Mus musculus [19],Active
same,Activity,Mus musculus [20],Active
same,Activity,Mus musculus [21],Active
same,Activity,Mus musculus [22],Active
same,Activity,[23],Non-Toxic
same,AUC(0-inf),[24],1100 ng·h/mL
same,Activity,[25],Non-Toxic
same,Activity,Mus musculus [26],Active
same,Activity,[27],Non-Toxic
same,Activity,[28],Non-Toxic
same,Activity,[29],Non-Toxic
same,inhibition,HLF [30],Active
same,MRT last at 48 h,[31],11.5 h
same,t1/2,[32],7.72 h
same,inhibition,HLF [33],Active
same,Activity,Mus musculus [34],Active
same,Activity,HLF [35],Active
same,Activity,Mus musculus [36],Active
same,Activity,Mus musculus [37],Active
COC(=O)c1ccc2c(c1)NC(=O)/C2=C(\Nc1ccc(N(C)C(=O)CN2CCN(C)CC2)cc1)c1ccccc1,Activity,Mus musculus [38],Active
same,Activity,Mus musculus [39],Active
same,Activity,Mus musculus [40],Active
same,Activity,Mus musculus [41],Active
same,Activity,Mus musculus [42],Active
same,Activity,Mus musculus [43],Active
CC(C)[C@]12O[C@H]1[C@@H]1O[C@]13[C@]1(O[C@H]1C[C@H]1C4=C(CC[C@@]13C)C(=O)OC4)[C@@H]2OC(=O)CCC(=O)[O-].[Na+] [OMTRIPTOLIDE SODIUM],solubility,[3],1.39 mg/mL
CC(C)[C@]12O[C@H]1[C@@H]1O[C@]13[C@]1(O[C@H]1C[C@H]1C4=C(CC[C@@]13C)C(=O)OC4)[C@@H]2OCOP(=O)([O-])[O-].[Na+].[Na+] [MINNELIDE],solubility,[3],93.3 mg/mL

# — ChEMBL document CHEMBL6127048, “Water-soluble and predictable-release triptolide prodrugs block bleomycin-induced pulmonary fibrosis in mice” (Eur J Med Chem, 2024)
